# Reference: patent publication US20250340848A1, “METHODS FOR CHEMICAL REPROGRAMMING AND PLURIPOTENT STEM CELLS” (Peking University, priority 2022, published 2025)
# Test system: hADSCs
# Test: Three-stage conversion of hADSCs into hCiPSCs (methods of EXAMPLE 1), numbers of hCiPSC colonies
# Type: cell-based, human
# Excerpt: FIG. 1 illustrates a schematic of an exemplary method for converting human somatic cells into pluripotent stem cells. The method has 3 stages. During any of the 3 stages, any cell can proliferate and give rise to progeny cells. In stage 1, a first population of cells comprising somatic cells are contacted with a first composition for about 4-12 days. The first population of cells can comprise somatic cells (e.g., fibroblasts or primary human adult adipose derived mesenchymal stromal cells (hADSCs)). During and/or subsequent to contacting the first composition, at least a subset of the cells of the first population of cells or the progenies thereof are converted into a second population of cells. The second population of cells can comprise epithelial-like cells. In stage 2, the second population of cells or the progenies thereof are then contacted with a second composition for about 4-16 days. During and/or subsequent to contacting the second composition, at least a subset of the cells of the second population of cells or the progenies thereof are converted into a third population of cells. The third population of cells can comprise intermediate plastic state cells. In stage 3, the third population of cells or the progenies thereof are contacted with a third composition for about 6-12 days. During and/or subsequent to contacting the third composition, at least a subset of the cells of the third population of cells or the progenies thereof are converted into a fourth population of cells.
# FIG. 2 illustrates a schematic of an exemplary method for converting human fibroblasts into pluripotent stem cells. The method can comprise 3 stages. During any of the 3 stages, any cell can proliferate and give rise to progeny cells. In stage 1, a first population of cells comprising fibroblasts is contacted with a first composition for about 8-10 days. During and/or subsequent to contacting the first composition, at least a subset of the cells of the first population of cells or the progenies thereof are converted into a second population of cells. The second population of cells can comprise epithelial-like cells. The epithelial-like cells express an increased amount of LIN28A, relative to the first population of cells or their progenies. In stage 2, the second population of cells or the progenies thereof are then contacted with a second composition for about 12-16 days. During and/or subsequent to contacting the second composition, at least a subset of the cells of the second population of cells or the progenies thereof are converted into a third population of cells. The third population of cells can comprise intermediate plastic state cells. The intermediate plastic state cells express both SALL4 and LIN28A. In stage 3, the third population of cells or the progenies thereof are contacted with a third composition for about 8-10 days. During and/or subsequent to contacting the third composition, at least a subset of the cells of the third population of cells or the progenies thereof are converted into a fourth population of cells. […] The second conversion medium can then be removed from the cells. […] The third stage 3 medium may allow the pluripotent stem cells or the progenies thereof to proliferate.
# In one experiment, when converting hCiPSCs from somatic cell (e.g., hADSCs), hypoxia with 5% O2 was used in stage 1 conversion. After stage 1 conversion, cells were incubated with 21% O2. The induction medium was changed every 3-4 days. hADSCs were seeded at a density of 1×10^4 cells per well of a 12-well plate in 15% FBS-DMEM medium and would be changed into stage 1 conversion medium the next day. For stage 1 conversion, single layer epithelial-like cells induced from hADSCs would emerge at day 4-6 and approach 100% confluence at day 8-12. Then the medium was changed into stage 2 conversion medium. […]
# [1] = factor removed from the stage 1 conversion medium, FIG. 4
# [2] = factor removed from the stage 2 conversion medium, FIG. 17
# [3] = factor removed from the stage 3 conversion medium, FIG. 19
# [4] = various combinations supplemented to stage 1 conversion medium comprising CHIR99021, 616452, TTNPB and AKT Kinase Inhibitor, FIG. 5
compound,measurement,setting,value
"CC(=O)N1CCN([C@H]2CCC[C@@H](NC(=O)c3cc4c(F)ccc(C)c4[nH]3)C2)CC1.O=C(O)C(F)(F)F [SETD2-IN-1, N-[(1R,3S)-3-(4-acetylpiperazin-1-yl)cyclohexyl]-4-fluoro-7-methyl-1H-indole-2-carboxamide;2,2,2-trifluoroacetic acid]",numbers of converted hCiPSCs,"supplemented to the stage 1 conversion medium, FIG. 6",significantly increased the numbers of converted hCiPSCs
"C/C(=C\c1ccc(C(=O)O)cc1)c1ccc2c(c1)C(C)(C)CCC2(C)C [TTNPB, 4-[(E)-2-(5,6,7,8-Tetrahydro-5,5,8,8-tetramethyl-2-naphthalenyl)-1-propenyl]benzoic acid]",numbers of converted hCiPSCs,[1],minimal numbers of converted hCiPSCs
same,numbers of converted hCiPSCs,[2],minimal numbers of converted hCiPSCs
"O=C(O)c1ccc2c(c1)nc(Nc1cccc(Cl)c1)c1ccncc12 [CX-4945, 5-(3-chloroanilino)benzo[c][2,6]naphthyridine-8-carboxylic acid]",reprogramming efficiency,"AKTi and CX4945 included in the stage 2 conversion medium (Base), FIG. 18",significantly improved the reprogramming efficiency
"CCCC(CCC)C(=O)O [VPA, valproic acid]",numbers of converted hCiPSCs,[3],minimal numbers of converted hCiPSCs
"Cc1cnc(-c2cnc(NCCNc3ccc(C#N)cn3)nc2-c2ccc(Cl)cc2Cl)[nH]1 [CHIR99021, 6-[[2-[[4-(2,4-Dichlorophenyl)-5-(5-methyl-1H-imidazol-2-yl)-2-pyrimidinyl]amino]ethyl]amino]-3-pyridinecarbonitrile]",numbers of converted hCiPSCs,[1],minimal numbers of converted hCiPSCs
same,numbers of converted hCiPSCs,[2],minimal numbers of converted hCiPSCs
"N#CC[C@H](C1CCCC1)n1cc(-c2ncnc3[nH]ccc23)cn1 [Ruxolitinib, (3R)-3-cyclopentyl-3-[4-(7H-pyrrolo[2,3-d]pyrimidin-4-yl)pyrazol-1-yl]propanenitrile]",numbers of converted hCiPSCs,[4],significantly increase the numbers of converted hCiPSCs
"Cc1cccc(-c2n[nH]cc2-c2ccc3ncccc3n2)n1 [compound 616452, 2-(3-(6-Methylpyridin-2-yl)-1H-pyrazol-4-yl)-1,5-naphthyridine]",numbers of converted hCiPSCs,[1],minimal numbers of converted hCiPSCs
same,numbers of converted hCiPSCs,[2],minimal numbers of converted hCiPSCs
"COc1ccc(CCc2nc3cc(-c4c(C)noc4C)ccc3n2C[C@H](C)N2CCOCC2)cc1Cl [SGC-CBP30, 2-[2-(3-chloro-4-methoxyphenyl)ethyl]-5-(3,5-dimethyl-4-isoxazolyl)-1-[(2S)-2-(4-morpholinyl)propyl]-1H-benzimidazole]",numbers of converted hCiPSCs,[2],minimal numbers of converted hCiPSCs
"CC(C)N(C[C@H]1O[C@@H](n2cnc3c(N)ncnc32)[C@H](O)[C@@H]1O)[C@H]1C[C@@H](CCc2nc3cc(C(C)(C)C)ccc3[nH]2)C1 [EPZ5676, (2R,3R,4S,5R)-2-(6-amino-9H-purin-9-yl)-5-((((1r,3S)-3-(2-(5-(tert-butyl)-1H-benzo[d]imidazol-2-yl)ethyl)cyclobutyl)(isopropyl)amino)methyl)tetrahydrofuran-3,4-diol]",numbers of converted hCiPSCs,[2],reduced the numbers of converted hCiPSCs
same,numbers of converted hCiPSCs,[4],significantly increase the numbers of converted hCiPSCs
"CNC1CCC(N(Cc2cccc(-c3ccncc3)c2)C(=O)c2sc3ccccc3c2Cl)CC1.Cl (stereo not drawn) [SAG, 3-chloro-N-[4-(methylamino)cyclohexyl]-N-[(3-pyridin-4-ylphenyl)methyl]-1-benzothiophene-2-carboxamide;hydrochloride]",numbers of converted hCiPSCs,[4],significantly increase the numbers of converted hCiPSCs
"CN(C)CCOc1ccc(-c2nc(-c3ccc4c(c3)CCC4=NO)c(-c3ccncc3)[nH]2)cc1 [SB590885, 5-[2-[4-[2-(Dimethylamino)ethoxy]phenyl]-5-(4-pyridinyl)-1H-imidazol-4-yl]-2,3-dihydro-1H-inden-1-one oxime]",numbers of converted hCiPSCs,[3],minimal numbers of converted hCiPSCs
"Cc1cc(NC(=O)c2cccc(NC(=O)/C=C/CN(C)C)c2)ccc1Nc1nccc(-c2cccnc2)n1 [JNKIN8, 3-[[(E)-4-(dimethylamino)but-2-enoyl]amino]-N-[3-methyl-4-[(4-pyridin-3-ylpyrimidin-2-yl)amino]phenyl]benzamide]",numbers of converted hCiPSCs,[2],minimal numbers of converted hCiPSCs
"Nc1ncnc2c1c(I)cn2[C@@H]1O[C@H](CO)[C@@H](O)[C@H]1O [5-ITU, (2R,3R,4S,5R)-2-(4-amino-5-iodopyrrolo[2,3-d]pyrimidin-7-yl)-5-(hydroxymethyl)oxolane-3,4-diol]",increase of the numbers of converted hCiPSCs,"added to the stage 2 conversion medium, relative to medium without it, FIGS. 7A-7B",more than 5 fold
same,numbers of converted hCiPSCs,[2],minimal numbers of converted hCiPSCs
O=C(NOC[C@H](O)CO)c1ccc(F)c(F)c1Nc1ccc(I)cc1F [PD0325901],numbers of converted hCiPSCs,[3],minimal numbers of converted hCiPSCs
"Nc1nccc2c1ncn2[C@@H]1C=C(CO)[C@@H](O)[C@H]1O [DZNep, (1S,2R,5R)-5-(4-Amino-1H-imidazo[4,5-c]pyridin-1-yl)-3-(hydroxymethyl)-3-cyclopentene-1,2-diol]",numbers of converted hCiPSCs,[2],minimal numbers of converted hCiPSCs
same,numbers of converted hCiPSCs,[4],significantly increase the numbers of converted hCiPSCs
